Assay results as given in paper PMC5789975, “Computer-aided Discovery of Peptides that Specifically Attack Bacterial Biofilms” (Scientific Reports, 2018).

Experiments:
[1] = test system: planktonic S. aureus MRSA (SAP0017); test: MIC determination, broth microdilution; type: cell-based, Staphylococcus aureus; details: broth microdilution, ~5 × 10^5 CFU/ml, 37 °C overnight, visual read, mean of three biological replicates
Method: The MIC of the synthesized peptides was determined in both Mueller Hinton Broth (MHB) and Tryptic Soy Broth (TSB) supplemented with 1% glucose, using the broth microdilution method[21] with slight modifications. Briefly, 10 μl of a 10× concentrated peptide stock solution, vancomycin antibiotic, or vehicle control (water) was placed in the bottom of a well in a 96-well polypropylene round bottom plate (Corning Inc. Corning, NY). A bacterial suspension of S. aureus MRSA (SAP0017, clinical isolate kindly provided by Dr. Tony Chow, Vancouver General Hospital) was prepared from an overnight culture to a final cell density of ~5 × 10^5 CFU/ml and 90 μl of this was added to each well.

[2] = test system: peripheral blood mononuclear cells (PBMCs); test: Cytotoxicity, LDH release assay; type: cell-based, human; details: peptide concentrations as high as 40 µM
Method: The cytotoxicity and immunomodulatory activity of both 1018 and 3002 was assessed as described previously. Briefly, peripheral blood mononuclear cells (PBMCs) were collected from healthy volunteers in accordance with the University of British Columbia ethics guidelines. PBMCs were plated in Costar 96-well flat bottom tissue culture treated plates at a final density of 1 × 10^6 cells/ml in RPMI media supplemented with 10% fetal bovine serum. […] Cytotoxicity was assessed using the Cytotoxicity Detection Kit (Roche Diagnostics, Basel, Switzerland) which measures lactate dehydrogenase activity released from damaged cells. Immune modulation was characterized by measuring the production of MCP-1 chemokine by induced by peptide alone as well as the suppression of interleukin (IL)-1β from PBMCs stimulated with 10 ng/ml Pseudomonas aeruginosa PAO1 lipopolysaccharide. Levels of MCP-1 and IL-1β were quantified by enzyme linked immunosorbent assays (ELISAs) using kits from eBioscience Inc. (San Diego, CA).

[3] = test system: biofilms formed by P. aeruginosa, Escherichia coli and MRSA; details: combination with various antimicrobial agents; cited from earlier work
Source text: For example, when peptide 1018 was used in combination with various antimicrobial agents, it decreased the amount of drug required to treat biofilms formed by P. aeruginosa, Escherichia coli and MRSA (among others) by up to 64-fold[30]. […] It is likely that such synergistic effects would be conserved with the latest pept ...

[4] = test system: S. aureus (MRSA SAP0017) biofilms; test: Static microtitre plate antibiofilm screen (crystal violet); type: cell-based, Staphylococcus aureus; details: SPOT-synthesized peptides (60–70% purity), ~6.25 μM, TSB with 1% glucose, 24 h 37 °C, crystal violet A595, mean of three biological replicates; Fig. 1b matrix
Method: The SPOT-synthesized peptides were evaluated for their antibiofilm activity in vitro as described previously. Briefly, 5 μl of SPOT-peptide stock solution or a corresponding serial dilution was placed in a 96-well polypropylene round bottom plate (Corning Inc. Corning, NY) and 95 μl of a 1/100 dilution of an overnight culture of MRSA SAP0017 in TSB supplemented with 1% glucose was added to each well. The plates were incubated overnight at 37 °C to allow for bacterial growth and biofilm maturation. After 24 hours, the media containing planktonic bacteria was rinsed from each well with distilled water and the remaining biomass was stained with 0.1% crystal violet. The unbound dye was rinsed away and the biofilm bound dye was suspended in 70% ethanol and the absorbance at 595 nm was recorded on a plate reader. Percent biofilm inhibition was calculated by comparison to the amount of crystal violet stain in the untreated controls (defined as 100%) and the sterility control wells (defined as 0%). Results from three separate biological replicates were averaged and outliers were identified using the modified Thompson Tau test and removed from the analysis. The antibiofilm activity of all SPOT-derived peptides was assessed at multiple concentrations (up to five 2-fold dilutions from the stock solution) and the peptide concentration yielding the largest difference in percent inhibition of biofilm growth was used in subsequent analysis.

[5] = test system: MRSA SAP0017 biofilms grown in flow cells; test: Eradication of pre-formed biofilms in flow cells; type: cell-based, Staphylococcus aureus; details: BM2 media, SYTO-9/propidium iodide, confocal microscopy
Method: Bacterial biofilms were grown in BM2 media (62 mM potassium phosphate buffer, pH 7, 7 mM (NH4)2SO4, 2 mM MgSO4, 10 μM FeSO4 and 0.4% (wt/vol) glucose) for 48 hours followed by treatment with peptide (2 or 0.125 µM) for an additional 24 hours. The samples were stained with SYTO-9 and propidium iodide fluorescent dyes to image total and dead cells, respectively. Flow-cell images were acquired on an Olympus FluoView FV1000 confocal laser scanning microscope (Olympus Corp. Tokyo, Japan) and were analyzed with the Fiji software package.

MRSA USA300 LAC = test: Murine cutaneous abscess model; type: in vivo, CD-1 mice; details: 14 mg/kg
Method: The in vivo activity of the identified antibiofilm peptide 3002 and the parental compound 1018 was evaluated using a recently described murine abscess model of chronic MRSA infections. All animal experiments were performed in accordance with The Canadian Council on Animal Care (CCAC) guidelines and were approved by the University of British Columbia Animal Care Committee. Briefly, the fur on the backs of 6-week old female CD-1 mice (Charles River Laboratories, Wilmington, MA) was removed by shaving and subsequent treatment with depilatory cream. MRSA USA300 LAC was grown to an optical density at 600 nm of 1 in tryptic soy broth (TSB) at which point cells were washed twice with sterile PBS and then suspended in PBS to a final cell density of 5 × 10^7 CFU/50 μL. Mice were infected with 50 μL of bacteria subcutaneously on the right flank of the back and 1 hour later, given saline (for controls) or treated with 14 mg/kg peptide (1018 or 3002) via intra-abscess injection. Mice were monitored daily and their weight as well as abscess lesion sizes (measured using a caliper) were recorded every 24 hrs. Visible dermonecrosis or white lesions (filled with pus) were considered as part of the abscess lesion while swelling/inflammation was disregarded in the abscess size measurements. Three days post-infection, abscesses were excised and homogenized using a Bead Ruptor 4 tissue homogenizer (OMNI International, Kennesaw GA) for 5 minutes and serially plated for viable CFU quantification.

VRLIVAVRIWRR-NH2 [compound 1018, synthetic immunomodulatory cationic peptide, 12-residue derivative of bovine bactenecin; parent template, reference compound]
MIC, MHB ([1]; Mueller Hinton Broth): 4 µM | MIC, TSB with 1% Glucose ([1]; Tryptic Soy Broth with 1% glucose): >64 µM | cytotoxicity (LDH release) [2]: less than 15% | decrease in amount of drug required to treat biofilms in combination with peptide [3]: up to 64 fold | percent residual biofilm after treatment with peptide [4]: 31% | eradication of 2-day old pre-formed MRSA biofilms ([5]; 0.125 μM peptide for 24 h): virtually identical to untreated controls | eradication of 2-day old pre-formed MRSA biofilms ([5]; 2 µM peptide for 24 h): effectively eradicated | reduction of abscess lesion size compared to untreated controls (MRSA USA300 LAC; single intra-abscess injection 1 h after infection, 3 days): 2.4 fold | effect on bacterial load recovered from the abscesses (MRSA USA300 LAC; single intra-abscess injection, CFU three days post-infection): neither peptide had any effect
